How the values were obtained:
NCI-H23 (lung cancer) = experiment: SRB cytotoxicity assay, NCI-H23; format: cell-based; settings: Homo sapiens, 48 h incubation, mean ± SEM of 3 independent experiments
Excerpt: (§1) Three human cancer cell lines: colon cancer (SW620), prostate cancer (PC3), and lung cancer (NCI-H23) were used for sceening the cytotoxicity of the compounds. The cancer cells were purchased from American Type Culture Collection (Manassas, VA, USA). Other reagents/media for cell culture were obtained from GIBCO (Grand Island, New York, USA). The testing cancer cells were culture in Dulbecco’s Modified Eagle Medium until confluence. Then, they were trypsinized and suspended at the level of 3 × 10^4 cells/mL of cell culture medium. On day 0, cancer cells were seeded at a volume of 180 µL/well of 96-well plates and incubated for 24 h at 37 °C in a 5% CO2 incubator. On day 1, 20 µL of various concentrations of testing compounds were added to each well of the 96-well plates. Chemicals were dissolved in dimethyl sulfoxide (DMSO, stock) and diluted in culture medium (1% DMSO) before adding to the culture. After 48 h incubation, the sulforhodamine B assay was used for cell density determination with slight modifications[22]–[26]. The Probits were used for the calculation of IC50 values. The reported IC50 were the averages of three independent screening (SD ≤ 10%)[27].
(§2) Two series of compounds synthesized (4a–p and 5a–f) were evaluated for their cytotoxicity against three human cancer cell lines, including SW620 (colon cancer), PC3 (prostate cancer), NCI-H23 (lung cancer), using SRB method as described previously[22] with slight modifications[23]–[26].

U937 cells = experiment: Annexin V-FITC/PI apoptosis assay; format: cell-based, human; settings: U937, 50 µM, 24 h
Description: The Annexin V-FITC/PI dual staining assay was used to determine the percentage of apoptotic cells. U937 cells (5 × 10^5/mL per well) were plated in 6-well culture plates and allowed to grow for 24 h. In our first experiment, we examined the effects of 4f, 4h, 4n, 4o, 4p, and PAC-1 on apoptosis at 50 µM. In the second experiment, we examined the dose-dependent effect of 4o at 5, 10, and 30 µM and PAC-1 at 30 µM on apoptosis. The cells were treated with compounds for 24 h, and then harvested. The harvested cells were washed twice with ice-cold PBS and incubated in the dark at room temperature in […] of 1 × binding buffer containing 1 µL Annexin V-FITC and […] PI. After 15 min incubation, cells were analyzed for percentage undergoing apoptosis using a FACScalibur flow cytometer (BD Biosciences). The data were processed using Cell Quest Pro software (BD Biosciences).
Figure 5 Apoptosis (Annexin V/PI) analysis of cells after treatment with some compounds. U937 cells were treated with compounds (50 µM) for 24 h. The harvested cells were incubated with Annexin V-FITC and PI and analyzed by using flow cytometry. Ten thousand cells were acquired (n = 3). UN untreated, VH vehicle (DMSO. 0.1%). Representative dot plots (A). Live cells, left down in dot plot. Early apoptotic cells, right down. Necrotic cells, left up, Late apoptotic cells, right up. Bar graph of late apoptotic cells (B). p values were calculated using one-way ANOVA in GraphPad Software (San Diego, CA, USA). *p < 0.01 vs VH control. TEXT PRINTED IN THE PICTURE: (A) PAC-1: 10.40%; 29.30%; 12.70% | (A) 4f: 0.52%; 6.05%; 5.41% | (A) 4h: 0.89%; 13.20%; 7.67% | (A) 4n: 0.44%; 6.83%; 5.73% | (A) 4o: 0.67%; 17.30%; 8.17% | (A) 4p: 1.60%; 13.00%; 5.86% DOUBTS OF THE COPYIST ABOUT THIS PICTURE: The quadrant percentages are in small italic print over the dot plots, so 3, 5, 6, 8 and 9 cannot always be told apart. All values given are best readings. / PAC-1: 10.40%, 29.30% and 12.70% are best readings (29.30 could be 28.30) / 4f: 0.52%, 6.05% and 5.41% are best readings (6.05 could be 6.06 or 8.05) / 4h: 0.89%, 13.20% and 7.67% are best readings (0.89 could be 0.86 or 0.69) / 4n: 0.44%, 6.83% and 5.73% are best readings (6.83 could be 6.63 or 6.88) / 4o: 0.67%, 17.30% and 8.17% are best readings (8.17 could be 6.17) / 4p: 1.60%, 13.00% and 5.86% are best readings (5.86 could be 5.88 or 5.66) / The picture prints no measure for the percentages; only their quadrant position tells them apart. They are listed upper left, upper right, lower right. / The plots UN (0.70%, 2.31%, 3.03%) and VH (1.75%, 2.43%, 3.57%) are controls, not substances, and are left out of the lines.
Figure 6 Apoptosis (Annexin V/PI) analysis of cells after treatment with different concentrations of compound 4o. U937 cells were treated with compound 4o at 5, 10 and 30 µM or PAC-1 (30 µM) for 24 h. The harvested cells were incubated with Annexin V-FITC and PI and analyzed by using flow cytometry. Ten thousand cells were acquired (n = 3). UN untreated, VH vehicle (DMSO. 0.1%). Representative dot plots (A). Live cells, left down in dot plot. Early apoptotic cells, right down. Necrotic cells, left up, Late apoptotic cells, right up. Bar graph of late apoptotic cells (B). p values were calculated using one-way ANOVA in GraphPad Software (San Diego, CA, USA). *p < 0.01 vs VH control.

[1] = test system: U937 human lymphoma cells; experiment: Cell cycle analysis (PI, flow cytometry); format: cell-based; settings: 50 µM, 24 h
Description: U937 human lymphoma cells (5 × 10^5/mL per well) were plated in 6-well culture plates and allowed to grow for 24 h. In our first experiment, we examined the effects of 4f, 4h, 4n, 4o, 4p, and PAC-1 on cell cycles at 50 µM. In the second experiment, we examined the dose-dependent effect of 4o at 5, 10, and 30 µM and PAC-1 at 30 µM on cell cycles. The cells were treated with compounds for 24 h, and then harvested. The harvested cells were washed twice with ice-cold PBS, fixed in 75% ice-cold ethanol, and stained with propidium iodide (PI) in the presence of RNase at room temperature for 30 min. The stained cells were analyzed for DNA content using a FACScalibur flow cytometer (BD Biosciences, San Jose, CA, USA) and the data were processed using Cell Quest Pro software (BD Biosciences).
(§3) Figure 3 Cell cycle analysis after treatment with some compounds. U937 human lymphoma cells were treated with compounds (50 µM) for 24 h. The harvested cells were stained with propidium iodide (PI) in the presence of RNase and then were analyzed for DNA content by using flow cytometry. Ten thousand cells were acquired (n = 3). UN untreated, VH vehicle (DMSO. 0.1%). Representative histograms (A) and bar graphs (B) are shown. p values were calculated using one-way ANOVA in GraphPad Software (San Diego, CA, USA). *p < 0.01 vs VH control.
as §3, with “Figure 4” for “Figure 3”, “analysis under” for “analysis after”, “with different concentrations of compound 4o.” for “with some compounds.”, “with compound 4o at 5, 10 and 30 µM or PAC-1 (30” for “with compounds (50”

SW620 (colon cancer) = experiment: SRB cytotoxicity assay, SW620; format: cell-based; settings: Homo sapiens, SW-620, 48 h incubation, mean ± SEM of 3 independent experiments
Excerpt: as §1, §2

PC3 (prostate cancer) = experiment: SRB cytotoxicity assay, PC3; format: cell-based; settings: Homo sapiens, 48 h incubation, mean ± SEM of 3 independent experiments
Excerpt: as §1, §2

[2] = Cytotoxicity on normal mesenchymal stem cells; format: cell-based; settings: human bone marrow-derived mesenchymal stem cells; mean ± SEM; read-out: Cytotoxicity (IC50) MSCs
Description: Overally, 5-fluorinated compounds (4i–p and 5d–f) were slightly more cytotoxic than non-fluorinated ones (4a–h, 5a–c). For compounds in series 4a–p, it was observed that, electron-releasing substituents (–OCH3, OH) were generally better than electron-withdrawing groups (–Cl) for cytotoxicity. Especially, compounds with 2-OH substituents produced the best cytotoxicity. The addition of either 4-OCH3 or 3-allyl groups further enhanced cytotoxicity of the related compounds (4g, 4h and 4o, 4p).

| melting point | SMILES | IC50 (NCI-H23 (lung cancer)) | Induction of apoptosis (Annexin V-FITC/PI) (U937 cells) | Effect on cell cycle distribution [1] | IC50 (SW620 (colon cancer)) | IC50 (PC3 (prostate cancer)) | IC50 [2] | Apoptotic effects compared among the representative compounds (U937 cells) |
| --- | --- | --- | --- | --- | --- | --- | --- | --- |
| 173 to 174 °C | O=C(CN1C(=O)Cc2ccccc21)N/N=C/c1ccccc1O [Compound 4f, (E)-N'-(2-Hydroxybenzylidene)-2-(2-oxoindolin-1-yl)acetohydrazide] | 4.3 ± 0.41 µM | induced early, and more substantially, late apoptosis | accumulated U937 cells in the S phase | 4.77 ± 0.53 µM | 7.34 ± 0.04 µM | 23.2 ± 0.26 µM |  |
| 185 to 186 °C | C=CCc1cccc(/C=N/NC(=O)CN2C(=O)Cc3ccccc32)c1O [Compound 4h, (E)-N'-(3-Allyl-2-hydroxybenzylidene)-2-(2-oxoindolin-1-yl)acetohydrazide] | 3.05 ± 0.22 µM | induced early, and more substantially, late apoptosis | accumulated U937 cells in the S phase | 4.21 ± 0.17 µM | 5.65 ± 0.19 µM | 15.1 ± 0.93 µM | more prominent |
| 173 to 174 °C | O=C(CN1C(=O)Cc2cc(F)ccc21)N/N=C/c1ccccc1O [Compound 4n, (E)-N'-(2-Hydroxybenzylidene)-2-(5-fluoro-2-oxoindolin-1-yl)acetohydrazide] | 3.7 ± 0.4 µM | induced early, and more substantially, late apoptosis | accumulated U937 cells in the S phase | 4.72 ± 0.75 µM | 5.08 ± 0.26 µM | 21 ± 0.51 µM |  |
| 194 to 195 °C | C=CCc1cccc(/C=N/NC(=O)CN2C(=O)Cc3cc(F)ccc32)c1O [Compound 4p, (E)-N'-(3-Allyl-2-hydroxybenzylidene)-2-(5-fluoro-2-oxoindolin-1-yl)acetohydrazide] | 2.7 ± 0.15 µM | induced early, and more substantially, late apoptosis | accumulated U937 cells in the S phase | 3.65 ± 0.23 µM | 5.11 ± 0.08 µM | 15.7 ± 0.46 µM | more prominent |
